The source of these data is US20010055614A1, “Antidepressant therapy” (priority 1998, published 2001).

Structures can show the parent of a compound that is named as a salt.

Series [1] in a line: pKa of amitriptyline hydrochloride. Format: physicochemical.
Series [2] is described as follows: Solubility and dissolution rate of amitriptyline hydrochloride in artificial gastric and intestinal fluid. Format: physicochemical. Here is the method: Dosage form 10 controls the exit 13 surface area for releasing drug 16 essentially independent of the pH of the drug receiving biological receptor, thereby essentially preventing crystallizing drug 16 in exit 13, or essentially preventing blocking exit 13 with nonreleased drug 16. […] In artificial intestinal fluid at 37° C. the drug dissolution rate in artificial intestinal fluid at pH 7.5 is low compared to the dissolution rate in a lower pH such as gastric fluid having a pH of about 2. […] The dissolution rate is sensitive to pH changes, and when drug 16 is pumped from the dosage form it tends to crystallize at higher pH in orifice exit 13, or to partially block orifice exit 13, which in either instance, slows the drug release rate, and decreases the cumulative amount of drug released from the dosage form. The present invention by providing coated granules of antidepressant tricyclic drug 16, and by providing an orifice in the range of 1 mil to 30 mil (0.0254 mm to 0.760 mm), essentially overcomes the problems discussed above. […] In drawing FIG. 6, the release rate is given on the y-axis and the orifice surface area in mils and in mm^2 is given on the x-axis. The release of drug from the dosage form was measured in artificial intestinal fluid. […] Drawing FIG. 9 depicts the cumulative amount of drug release in mg, over a period of 24 hours for a coated drug through a 10 mil (0.254 mm) exit orifice illustrates about 100% of the drug is delivered free of crystalizing in the orifice. Drawing FIG. 10 depicts the release rate measured in artificial gastric fluid over zero to two hours and then in artificial intestinal fluid over two to twenty-four hours, through a 10 mil (0.254 mm) orifice illustrates about 90% of the drug is delivered under these conditions. […] The antidepressant drug is dose delivered independent of pH as found in the gastrointestinal drug and free from sticking or blocked delivery to a patient.

As usually defined, the pKa is the pH at which an ionisable group is half protonated. Low values mean a group that gives up its proton readily, high ones a group that holds its proton tightly. In general, solubility refers to the concentration that dissolves in the medium under given conditions. In turn, `CN(C)CCC=C1c2ccccc2CCc2ccccc21` [amitriptyline hydrochloride] registered a pKa in series [1] of 9.4. The “solubility (in words)” value in series [2] (7.5 pH, artificial intestinal fluid, compared to artificial gastric fluid at pH 6) is on record as “soluble, but the solubility is less”. For the same compound, the solubility in series [2] (artificial gastric fluid, pH 6, simulated gastric fluid) is > 600 mg/mL. The “dissolution rate (in words)” value in series [2] (artificial intestinal fluid at pH 7.5, 37° C., compared to gastric fluid pH about 2) was “low”.
